These are literature values, as cited in patent US20090082295A1, “COMBINATIONS AND METHODS OF USING AN IMMUNOMODULATORY OLIGODEOXYNUCLEOTIDE” (PFIZER INC., priority 2005, published 2009).

Structures can show the parent of a compound that is named as a salt.

One series relates to mitotic microtubules. The note with it: intact tectal plates from mouse embryos.
Another series relates to axonal microtubules. The note with it: intact tectal plates from mouse embryos.
The next series relates to mammalian cells. The note with it: high concentrations.
Series [1] relates to LX-1 human lung xenograft.
Series [2] concerns CALU-6 human lung xenograft.
For series [3] the following is noted: combination with cisplatin.
Series [4] deals with Lewis lung murine xenograft.
Series [5] concerns topoisomerase I purified from human and rodent tumor cell lines. The note with it: purified enzyme.
Series [6] relates to rat mammary carcinoma induced by dimethylbenzanthracene (DMBA).
Series [7] has as its system xenotransplant models of colon cancer. The note with it: nude (athymic) mice.

Regarding `CCC1=C[C@@H]2CN(C1)Cc1c([nH]c3ccccc13)[C@@](C(=O)OC)(c1cc3c(cc1OC)N(C)[C@H]1[C@@](O)(C(=O)OC)[C@H](OC(C)=O)[C@]4(CC)C=CCN5CC[C@]31[C@@H]54)C2` (relative stereo) [vinorelbine, 3′,4′-didehydro-4′-deoxy-C′-norvincaleukoblastine[R—(R*,R*)-2,3-dihydroxybutanedioate (1:2) (salt)]], the “concentration inhibiting mitotic microtubule formation, inducing a blockade of cells at metaphase” value in the series on mitotic microtubules was 2 µM. Also, the “concentration producing depolymerization of axonal microtubules” value (shortened to “concentration producing depolymerization”) in the series on axonal microtubules is 40 µM.

As to `COc1cc([C@@H]2c3cc4c(cc3[C@@H](O[C@@H]3O[C@@H]5CO[C@@H](C)O[C@H]5[C@H](O)[C@H]3O)[C@H]3COC(=O)[C@H]23)OCO4)cc(OC)c1O` [Etoposide, 4′-Demethylepipodophyllotoxin 9-[4,6-0-(R)-ethylidene-β-D-glucopyranoside]], the “concentration at which lysis of cells entering mitosis is observed” value in the series with mammalian cells was not below 10 µg/mL.

For `Nc1ccn([C@@H]2O[C@H](CO)[C@@H](O)C2(F)F)c(=O)n1` [Gemcitabine, 2′-deoxy-2′,2′-difluorocytidine monohydrochloride (β-isomer)], the “activity in combination with cisplatin” value in series [1] was “showed activity”; in [2] it was “showed activity”; with NCI-H460 xenograft it was “minimal activity”; with NCI-H520 xenograft it was “minimal activity”. Further, in series [3], the “activity with cisplatin in vitro” value is recorded as “dose-dependent synergistic activity”. Moreover, the interaction with cisplatin entry in series [4] was “synergistic”.

As to `CCc1c2c(nc3ccc(O)cc13)-c1cc3c(c(=O)n1C2)COC(=O)[C@]3(O)CC` [SN-38], the “potency as inhibitor of topoisomerase I relative to irinotecan” value in series [5] is listed as “approximately 1000 times”.

Regarding `CC/C(=C(\c1ccccc1)c1ccc(OCCN(C)C)cc1)c1ccccc1` [Tamoxifen, (Z)2-[4-(1,2-diphenyl-1-butenyl)phenoxy]-N, Ndimethylethanamine 2-hydroxy-1,2,3-propanetricarboxylate (1:1)], the “effect on DMBA-induced mammary carcinoma” value in [6] is “inhibits the induction of rat mammary carcinoma induced by dimethylbenzanthracene (DMBA) and causes the regression of already established DMBA-induced tumors”.

As to `CC[C@]1(O)C[C@@H]2CN(CCc3c([nH]c4ccccc34)[C@@](C(=O)OC)(c3cc4c(cc3OC)N(C)[C@H]3[C@@](O)(C(=O)OC)[C@H](OC(C)=O)[C@]5(CC)C=CCN6CC[C@]43[C@@H]65)C2)C1` [vinblastine], the “concentration inhibiting mitotic microtubule formation, inducing a blockade of cells at metaphase” value in the series on mitotic microtubules is 2 µM. In addition, in the series with axonal microtubules, the “concentration producing depolymerization” value is 30 µM.

On to `CC[C@]1(O)C[C@H]2CN(CCc3c([nH]c4ccccc34)[C@@](C(=O)OC)(c3cc4c(cc3OC)N(C=O)[C@H]3[C@@](O)(C(=O)OC)[C@H](OC(C)=O)[C@]5(CC)C=CCN6CC[C@]43[C@@H]65)C2)C1` [vincristine], for which the “concentration inhibiting mitotic microtubule formation, inducing a blockade of cells at metaphase” value in the series with mitotic microtubules was 2 µM. Further, the “concentration producing depolymerization” value in the series on axonal microtubules is 5 µM.

For “bevacizumab: recombinant humanized monoclonal IgG1 antibody that binds human VEGF”, in [7], the “effect on microvascular growth and metastatic disease progression” value is “reduction of microvascular growth and inhibition of metastatic disease progression”.
